Columns and labels:
[1] = biological target: T1, Full length human recombinant HDAC8 protein (Homo sapiens, UniProt Q9BY41); experiment: In vitro histone deacetylase assay: enzymatic HDAC8 electrophoretic mobility shift assay; assay type: biochemical; details: electrophoretic mobility shift assay; enzyme 1 nM; 2 μM fluorescently labeled peptide substrate RHKK(Ac)-NH2; 25° C.; 12 concentrations; read-out: HDAC8 IC50
T1 construct: Full length human recombinant HDAC8 protein was expressed in baculoviral system; made in house
T1 sequence (Q9BY41 1-377): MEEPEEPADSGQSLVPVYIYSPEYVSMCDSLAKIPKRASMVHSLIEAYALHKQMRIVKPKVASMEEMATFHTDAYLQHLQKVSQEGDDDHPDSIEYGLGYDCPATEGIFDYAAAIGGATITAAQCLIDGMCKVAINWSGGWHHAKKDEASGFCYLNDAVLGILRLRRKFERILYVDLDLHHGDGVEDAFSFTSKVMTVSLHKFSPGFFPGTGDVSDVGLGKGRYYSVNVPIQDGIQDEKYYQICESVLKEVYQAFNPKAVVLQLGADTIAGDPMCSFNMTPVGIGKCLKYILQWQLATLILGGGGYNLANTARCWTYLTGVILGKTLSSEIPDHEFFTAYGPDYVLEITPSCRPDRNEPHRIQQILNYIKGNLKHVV

[2] = biological target: T2, Recombinant N-terminal GST tag full-length human HDAC8 (Homo sapiens, UniProt Q9BY41); experiment: HDAC8 probe binding assay, time resolved fluorescence (TRF) format; details: compounds grouped by IC50 range (Table 2)
T2 construct: Recombinant N-terminal GST tag full-length human HDAC8; purchased SignalChem H90-30G-1000; host or cells: baculovirus in Sf9 insect cells
T2 sequence (Q9BY41 1-377): T1 sequence (Q9BY41 1-377)
Method in brief: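 IC50 values come from four-parameter logistic fits of percent inhibition, scaled between DMSO (high) and no-enzyme (low) controls. Time-resolved fluorescence (ex 340, em 485/535 nm) was read after 16 h at room temperature. Enzyme was Sf9-expressed full-length human HDAC8 with an N-terminal GST tag, in a probe-binding format.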

Structure (SMILES)	IC50 [1]	IC50 [2]
O=C(NO)c1ccc2c(c1)N(Cc1ccc(OC(F)(F)F)cc1)C(=O)CO2 [Compound I-36, N-hydroxy-3-oxo-4-(4-(trifluoromethoxy)benzyl)-3,4-dihydro-2H-benzo[b][1,4]oxazine-6-carboxamide]	< 25 nM	≤ 25 nM
CCOc1c(F)cc(CN2C(=O)COc3ccc(C(=O)NO)cc32)cc1F [Compound I-250, 4-(4-ethoxy-3,5-difluorobenzyl)-N-hydroxy-3-oxo-3,4-dihydro-2H-benzo[b][1,4]oxazine-6-carboxamide]	25 to 100 nM	25 to 100 nM
O=C(NO)c1ccc2c(c1)N(Cc1ccc(F)cc1)C(=O)CO2 [Compound I-37, 4-(4-fluorobenzyl)-N-hydroxy-3-oxo-3,4-dihydro-2H-benzo[b][1,4]oxazine-6-carboxamide]	< 25 nM	≤ 25 nM
COc1ccc(CN2C(=O)C3(CCC3)Oc3ccc(C(=O)NO)cc32)cc1 [Compound I-157, N-hydroxy-4-(4-methoxybenzyl)-3-oxo-3,4-dihydrospiro[benzo[b][1,4]oxazine-2,1′-cyclobutane]-6-carboxamide]	25 to 100 nM	25 to 100 nM
Cc1ccc2oc(CN3C(=O)COc4ccc(C(=O)NO)cc43)nc2c1 [Compound I-286, N-hydroxy-4-((5-methylbenzo[d]oxazol-2-yl)methyl)-3-oxo-3,4-dihydro-2H-benzo[b][1,4]oxazine-6-carboxamide]	25 to 100 nM	25 to 100 nM
COc1ccc(CN2C(=O)COc3ccc(C(=O)NO)cc32)cc1C(F)(F)F [Compound I-246, N-hydroxy-4-(4-methoxy-3-(trifluoromethyl)benzyl)-3-oxo-3,4-dihydro-2H-benzo[b][1,4]oxazine-6-carboxamide]	< 25 nM	≤ 25 nM
Cc1nc(-c2ccccc2)sc1CN1C(=O)COc2ccc(C(=O)NO)cc21 [Compound I-76, N-hydroxy-4-((4-methyl-2-phenylthiazol-5-yl)methyl)-3-oxo-3,4-dihydro-2H-benzo[b][1,4]oxazine-6-carboxamide]	25 to 100 nM	25 to 100 nM
O=C(NO)c1ccc2c(c1)N(Cc1cn3ccccc3n1)C(=O)CO2 [Compound I-216, N-hydroxy-4-(imidazo[1,2-a]pyridin-2-ylmethyl)-3-oxo-3,4-dihydro-2H-benzo[b][1,4]oxazine-6-carboxamide]	25 to 100 nM	25 to 100 nM
Cc1ccc2nc(CN3C(=O)COc4ccc(C(=O)NO)cc43)oc2c1 [Compound I-213, N-hydroxy-4-((6-methylbenzo[d]oxazol-2-yl)methyl)-3-oxo-3,4-dihydro-2H-benzo[b][1,4]oxazine-6-carboxamide]	< 25 nM	≤ 25 nM
CN1CCCC[C@H]1CN1C(=O)COc2ccc(C(=O)NO)cc21 (stereo in doubt) [Compound I-47, N-hydroxy-4-((1-methylpiperidin-2-yl)methyl)-3-oxo-3,4-dihydro-2H-benzo[b][1,4]oxazine-6-carboxamide]	> 1000 nM	> 1000 nM
O=C(NO)c1ccc2c(c1)N(CC1CCC1)C(=O)CO2 [Compound I-31, 4-(cyclobutylmethyl)-N-hydroxy-3-oxo-3,4-dihydro-2H-benzo[b][1,4]oxazine-6-carboxamide]	25 to 100 nM	25 to 100 nM
O=C(NO)c1ccc2c(c1)N(c1ccccc1)C(=O)CO2 [Compound I-357, N-hydroxy-3-oxo-4-phenyl-3,4-dihydro-2H-benzo[b][1,4]oxazine-6-carboxamide]	100 to 1000 nM	25 to 100 nM
COc1ccc(CN2C(=O)C(C)Oc3ccc(C(=O)NO)cc32)cc1 (centres unmarked) [Compound I-151, N-hydroxy-4-(4-methoxybenzyl)-2-methyl-3-oxo-3,4-dihydro-2H-benzo[b][1,4]oxazine-6-carboxamide]	< 25 nM	≤ 25 nM
COc1ccc(CN2C(=O)COc3ccc(C(=O)NO)cc32)cc1C [Compound I-244, N-hydroxy-4-(4-methoxy-3-methylbenzyl)-3-oxo-3,4-dihydro-2H-benzo[b][1,4]oxazine-6-carboxamide]	< 25 nM	25 to 100 nM
O=C(NO)c1ccc2c(c1)N(Cc1nc3cc(Cl)ccc3o1)C(=O)CO2 [Compound I-272, 4-((5-chlorobenzo[d]oxazol-2-yl)methyl)-N-hydroxy-3-oxo-3,4-dihydro-2H-benzo[b][1,4]oxazine-6-carboxamide]	< 25 nM	≤ 25 nM
COc1ccc(CN2C(=O)COc3ccc(C(=O)NO)cc32)c(C(F)(F)F)c1 [Compound I-249, N-hydroxy-4-(4-methoxy-2-(trifluoromethyl)benzyl)-3-oxo-3,4-dihydro-2H-benzo[b][1,4]oxazine-6-carboxamide]	100 to 1000 nM	25 to 100 nM

Structure (SMILES)	IC50 [1]	IC50 [2]
CS(=O)(=O)c1ccc(CN2C(=O)COc3ccc(C(=O)NO)cc32)cc1 [Compound I-142, N-hydroxy-4-(4-(methylsulfonyl)benzyl)-3-oxo-3,4-dihydro-2H-benzo[b][1,4]oxazine-6-carboxamide]	< 25 nM	≤ 25 nM
CC(C)n1c(CN2C(=O)COc3ccc(C(=O)NO)cc32)nc2ccccc21 [Compound I-281, N-hydroxy-4-((1-isopropyl-1H-benzo[d]imidazol-2-yl)methyl)-3-oxo-3,4-dihydro-2H-benzo[b][1,4]oxazine-6-carboxamide]	100 to 1000 nM	> 1000 nM
O=C(NO)c1ccc2c(c1)N(CCOCC(F)(F)F)C(=O)CO2 [Compound I-53, N-hydroxy-3-oxo-4-(2-(2,2,2-trifluoroethoxy)ethyl)-3,4-dihydro-2H-benzo[b][1,4]oxazine-6-carboxamide]	25 to 100 nM	25 to 100 nM
CC(c1ccc(S(C)(=O)=O)cc1)N1C(=O)COc2ccc(C(=O)NO)cc21 (centres unmarked) [Compound I-94, N-hydroxy-4-(1-(4-(methylsulfonyl)phenyl)ethyl)-3-oxo-3,4-dihydro-2H-benzo[b][1,4]oxazine-6-carboxamide]	< 25 nM	≤ 25 nM
COc1ccc(CN2C(=O)COc3ccc(C(=O)NO)cc32)cc1Cl [Compound I-243, 4-(3-chloro-4-methoxybenzyl)-N-hydroxy-3-oxo-3,4-dihydro-2H-benzo[b][1,4]oxazine-6-carboxamide]	< 25 nM	≤ 25 nM
CCC1Oc2ccc(C(=O)NO)cc2N(Cc2ccc(OC)cc2)C1=O (centres unmarked) [Compound I-99, 2-ethyl-N-hydroxy-4-(4-methoxybenzyl)-3-oxo-3,4-dihydro-2H-benzo[b][1,4]oxazine-6-carboxamide]	< 25 nM	≤ 25 nM
COc1ccc(CN2C(=O)C(CCN)Oc3ccc(C(=O)NO)cc32)cc1 (centres unmarked) [Compound I-104, 2-(2-aminoethyl)-N-hydroxy-4-(4-methoxybenzyl)-3-oxo-3,4-dihydro-2H-benzo[b][1,4]oxazine-6-carboxamide]	25 to 100 nM	≤ 25 nM
COc1ccc(CN2C(=O)C(C(C)(C)C)Oc3ccc(C(=O)NO)cc32)cc1 (centres unmarked) [Compound I-103, 2-(tert-butyl)-N-hydroxy-4-(4-methoxybenzyl)-3-oxo-3,4-dihydro-2H-benzo[b][1,4]oxazine-6-carboxamide]	< 25 nM	≤ 25 nM
O=C(NO)c1ccc2c(c1)N(Cc1ccc(-c3ccccc3)cc1)C(=O)CO2 [Compound I-251, 4-([1,1′-biphenyl]-4-ylmethyl)-N-hydroxy-3-oxo-3,4-dihydro-2H-benzo[b][1,4]oxazine-6-carboxamide]	< 25 nM	≤ 25 nM
CS(=O)(=O)c1cccc(CN2CCOc3ccc(C(=O)NO)cc32)c1 [Compound I-125, N-hydroxy-4-(3-(methylsulfonyl)benzyl)-3,4-dihydro-2H-benzo[b][1,4]oxazine-6-carboxamide]	100 to 1000 nM	25 to 100 nM
O=C(NO)c1ccc2c(c1)N(Cc1cc(C(F)(F)F)ccc1Cl)C(=O)CO2 [Compound I-259, 4-(2-chloro-5-(trifluoromethyl)benzyl)-N-hydroxy-3-oxo-3,4-dihydro-2H-benzo[b][1,4]oxazine-6-carboxamide]	< 25 nM	≤ 25 nM
O=C(NO)c1ccc2c(c1)N(Cc1cccc(F)c1)C(=O)CO2 [Compound I-33, 4-(3-fluorobenzyl)-N-hydroxy-3-oxo-3,4-dihydro-2H-benzo[b][1,4]oxazine-6-carboxamide]	25 to 100 nM	≤ 25 nM
COc1ccc(CN2C(=O)C(c3ccccc3)Oc3ccc(C(=O)NO)cc32)cc1 (centres unmarked) [Compound I-101, N-hydroxy-4-(4-methoxybenzyl)-3-oxo-2-phenyl-3,4-dihydro-2H-benzo[b][1,4]oxazine-6-carboxamide]	< 25 nM	≤ 25 nM
O=C(NO)c1ccc2c(c1)N(Cc1nc3cccnc3n1Cc1ccccc1)C(=O)CO2 [Compound I-284, 4-((3-benzyl-3H-imidazo[4,5-b]pyridin-2-yl)methyl)-N-hydroxy-3-oxo-3,4-dihydro-2H-benzo[b][1,4]oxazine-6-carboxamide]	25 to 100 nM	25 to 100 nM
CS(=O)(=O)c1cccc(CN2C(=O)COc3ccc(C(=O)NO)cc32)c1 [Compound I-145, N-hydroxy-4-(3-(methylsulfonyl)benzyl)-3-oxo-3,4-dihydro-2H-benzo[b][1,4]oxazine-6-carboxamide]	25 to 100 nM	25 to 100 nM
